# Ends that are not written are not given here.
# Experiments:
# [1] = test system: cells; format: cell-based; conditions: for Relative Light Units (luciferase expression): pCIluc DNA/poly-L-lysine complex plus 40 μg modified lipid, 48 h; for Relative Light Units relative to poly-L-lysine (no lipid): value in parentheses
# [2] = Kinetics of conversion of dimethylmaleamic modified amines to amines at pH 5 (trinitrobenzenesulfonate); format: physicochemical
# Method: Dimethyl maleamic modified poly-L-lysine (10 mg/mL) was incubated in 10 mM sodium acetate buffer pH 5. At various times, aliquots (10 μg) were removed and added to 0.5 mL of 100 mM borax solution containing 0.4 mM trinitrobenzenesulfonate. A half an hour later, the absorbance of the solution at 420 nm was measured. To determine the concentration of amines at each time point, the extinction coefficient was determine for the product of trinitrobenzenesulfonate and poly-L-lysine. Using this extinction coefficient we were able to calculate the amount of amines and maleamic groups at each time point. A plot of ln (At/A0) as a function of time was a straight line whose slope is the negative of the rate constant for the conversion of maleamic acid to amine and anhydride, where At is the concentration of maleamic acid at a time t and A0 is the initial concentration of maleamic acid. For two separate experiments we calculated rate constants of […] which correspond to half lives of roughly 10 and 4 minutes respectively.
# Dimethyl maleamic modified KL3 (0.1 mg/mL) was incubated in 40 mM sodium acetate buffer pH 5 and 1 mM cetyltrimetylammonium bromide. At various times, aliquots (10 μg) were removed and added to 0.05 mL of 1 M borax solution containing 4 mM trinitrobenzenesulfonate. A half an hour later, the absorbance of the solution at 420 nm was measured. […]
# [3] = test system: red blood cells; assay: Blood lysis experiment on melittin conjugated to microspheres via ketal; format: cell-based
# Method: The microspheres were taken up in H2O (500 μL) and partitioned into five 100 μL samples. Four of the samples were diluted to 1000 μL with sodium phosphate buffer (100 mM) at pH 7.5, 6.0, 5.5, and 5.0. Samples were held at 37° C., spun down, and 150 μL aliquots taken at 30 min, 60 min, 90 min, and 16 hrs. A portion of each sample (100 μL) was diluted with sodium phosphate buffer (400 μL, pH 7.5) and added to red blood cells (100 μL, pH 7.5). Red blood cell lysis was measured after 10 min by measuring the absorbance at 541 nm. A control sample was also measured in which 100% of the red blood cells had been lysed with melittin alone.
# The fifth 100 μL sample was further divided into 25 μL samples, three of which were diluted to 250 μL with sodium phosphate buffer (100 mM) at pH 7.5, 6.0, and 5.0. The samples were held at 37° C. for 30 min, spun down and the supernatant removed, and resuspended in 2.5 M NaCl solution (50 μL) and mixed. After 10 min the microspheres were spun down and the supernatant removed. The samples were added to red blood cells (500 μL, 100 mM) and the absorbance was measured at 541 nm.
# [4] = test system: HELA cells; assay: Endosome disruption assay (FITC-dextran, propidium iodide); format: cell-based; conditions: 50 μg
# Method: HeLa cells were plated in 6-well tissue culture dishes containing microscope slide coverslips and grown in Delbecco's Modified Eagle's Medium (DMEM)+10% fetal calf serum+penn/strep for 24–48 hours until 30–60% confluent. […] After 25 min, media containing FITC-dextran±melittin was removed, the cells were washed twice with 1 ml 37° C. DMEM lacking FITC-dextran and melittin, and cells were incubated for an additional 35 min at 37° C. in 1 ml fresh DMEM. In order to assess possible cell lysis caused by melittin, propidium iodide was added for the final 5 min of incubation. […] However, if the plasma membrane has been damaged, propidium iodide enters the cell where it will brightly stain the nucleus. To process slides for analysis, cells were washed 3 times with cold phosphate buffered saline (PBS), fixed in PBS+4% formaldehyde for 20–30 min at 4° C., and washed again 3 times with cold PBS. Excess liquid was drained from coverslips which were then mounted onto glass slides. Fluorescence was then analyzed on a Zeiss LSM510 confocal microscope. FITC was excited by a 488 nm argon laser and fluorescence emission was detected by a long pass 505 nm filter. […] For cells incubated with unmodified melittin near 100% cell death was observed as determined by propidium iodide staining of nuclei and loss of cells from the sample.
# [5] = Hemolysis assay: melittin or KL3 blocked by anionic polymer or dimethylmaleic anhydride; format: cell-based; conditions: pH 7.5; 30 minutes, 37 C; read-out: Percent hemolysis
# Method: The membrane-disruptive activity of the peptide melittin and subsequent blocking of activity by anionic polymers was measured using a red blood cell (RBC) hemolysis assay. RBCs were harvested by centrifuging whole blood for 4 min. They were washed three times with 100 mM dibasic sodium phosphate at the desired pH, and resuspended in the same buffer to yield the initial volume. They were diluted 10 times in the same buffer, and 200 uL of this suspension was used for each tube. This yields 10 ? 8 RBCs per tube. Each tube contained 800 uL of buffer, 200 uL of the RBC suspension, and the peptide with or without polymer. Each sample was then repeated to verify reproducibility. The tubes were incubated for 30 minutes in a 37 C water bath. They were spun for 5 min at full speed in the microcentifuge. Lysis was determined by measuring the absorbance of the supernatant at 541 nm, reflecting the amount of hemoglobin that had been released into the supernatant. Percent hemolysis was calculated assuming 100% lysis to be measured by the hemoglobin released by the red blood cells in water; controls of RBCs in buffer with no peptide were also run.
# [6] = test system: 3T3 mouse embryonic fibroblast cells; assay: In vitro transfection with DNA-PLL-KL3 and dimethylmaleamic KL3, luciferase expression; format: cell-based
# Method: To a complex of plasmid DNA pCIluc (10 μg/mL, 0.075 mM in phosphate, 2.6 μg/μL pCIluc; prepared according to Danko, I., Williams, P., Herweijer, H. Zhang, G., Latendresse, J. S., Bock, I., Wolff, J. A. Hum. Mol. Genetics 1997, 6, 1435.) and poly-L-lysine (40 μg/mL) in 0.5 mL of 5 mM HEPES pH 7.5 was added succinylated poly-L-lysine (34,000 MW, Aldrich Chemical), 2,3-dimethylmaleamic melittin and 2,3-dimethylmaleamic KL3. The DNA-poly-L-lysine-2,3-dimethylmaleamic peptide complexes were then added (200 μL) to wells containing 3T3 mouse embryonic fibroblast cells in 290 mM glucose and 5 mM HEPES buffer pH 7.5. After 1.5 h, the glucose media was replaced with Dubelco's modified Eagle Media and the cells were allowed to incubate for 48 h. The cells were then harvested and then assayed for luciferase expression as previously reported (Wolff, J. A., Malone, R. W., Williams, P., Chong, W., Acsadi, G., Jani, A. and Felgner, P. L. Direct gene transfer into mouse muscle in vivo. Science, 1465–1468, 1990.). A Lumat LB 9507 (EG&G Berthold, Bad-Wildbad, Germany) luminometer was used. The amount of transfection was reported in relative light units and is the average transfection for two separate wells of cells.
# [7] = 15 mM sodium acetate pH 5 buffer
# Method: The absorbance of the solution at 225 nm, which is the wavelength at which enol ethers absorb (Kresge, A. J.; Sagatys, D. S.; Chen, H. L. J. Am. Chem. Soc. 1977, 99, 7228) was measured over time.
# The absorbance of the solution at 225 nm was measured as a function of time.
compound,measurement,setting,value
"CCCCCCCC/C=C\CCCCCCCC(=O)OCC(COC(=O)/C(C)=C(/C)C(=O)O)OC(=O)CCCCCCC/C=C\CCCCCCCC (centres unmarked) [2,3-dimethylmaleamic-modified DOG]",Relative Light Units (luciferase expression),[1],193624 Relative Light Units
same,Relative Light Units relative to poly-L-lysine (no lipid),[1],32
"CCCCCCCC/C=C\CCCCCCCC(=O)OC[C@H](COP(=O)(O)OCCNC(=O)/C(C)=C(/C)C(=O)O)OC(=O)CCCCCCC/C=C\CCCCCCCC [2,3-dimethylmaleamic-modified DOPE]",Relative Light Units (luciferase expression),[1],243359 Relative Light Units
same,Relative Light Units relative to poly-L-lysine (no lipid),[1],40
C/C(C(N)=O)=C(\CCC(=O)O)C(=O)O [2-propionic-3-methylmaleamic acid],rate of maleamic acid cleavage compared,[2],"the same as that for 2,3-dimethylmaleamic acids"
"CC[C@H](C)[C@H](NC(=O)CN)C(=O)NCC(=O)N[C@@H](C)C(=O)N[C@H](C(=O)N[C@@H](CC(C)C)C(=O)N[C@@H](CCCCN)C(=O)N[C@H](C(=O)N[C@@H](CC(C)C)C(=O)N[C@H](C(=O)N[C@H](C(=O)NCC(=O)N[C@@H](CC(C)C)C(=O)N1CCC[C@H]1C(=O)N[C@@H](C)C(=O)N[C@@H](CC(C)C)C(=O)N[C@H](C(=O)N[C@@H](CO)C(=O)N[C@@H](Cc1c[nH]c2ccccc12)C(=O)N[C@H](C(=O)N[C@@H](CCCCN)C(=O)N[C@@H](CCCNC(=N)N)C(=O)N[C@@H](CCCCN)C(=O)N[C@@H](CCCNC(=N)N)C(=O)N[C@@H](CCC(N)=O)C(=O)N[C@@H](CCC(N)=O)C(N)=O)[C@@H](C)CC)[C@@H](C)CC)[C@@H](C)O)[C@@H](C)O)C(C)C)C(C)C [Melittin, reference compound]",A541 (red blood cell lysis),"[3]; control, 100% lysis with melittin alone",1.881
same,cell death (propidium iodide staining of nuclei and loss of cells),[4],~100%
KLLKLLLKLWLKLLKLLLKLL [KL3],hemolysis,[5],86%
same,Relative Light Units (luciferase expression),"[6]; pCIluc DNA/poly-L-lysine complex plus named additive, 48 h, average of two wells",261 Relative Light Units
same,Relative Light Units relative to Succinylated poly-L-lysine,[6]; value in parentheses,0.04
"Melittin Conjugated to Microspheres: melittin attached to carboxylic acid modified microspheres via Di-(2-methyl-4-hydroxymethyl-1,3-dioxolane)-1,4-benzene ketal",A541 (red blood cell lysis),"[3]; 30 min pH 5.0, 37° C.",0.659
same,A541 (red blood cell lysis),"[3]; 30 min pH 5.5, 37° C.",0.609
same,A541 (red blood cell lysis),"[3]; 30 min pH 6.0, 37° C.",0.326
same,A541 (red blood cell lysis),"[3]; 30 min pH 7.5, 37° C.",0.026
same,A541 (red blood cell lysis),"[3]; 60 min pH 5.0, 37° C.",0.730
same,A541 (red blood cell lysis),"[3]; 60 min pH 5.5, 37° C.",0.526
same,A541 (red blood cell lysis),"[3]; 60 min pH 6.0, 37° C.",0.212
same,A541 (red blood cell lysis),"[3]; 60 min pH 7.5, 37° C.",0.027
same,A541 (red blood cell lysis),"[3]; 90 min pH 5.0, 37° C.",0.892
same,A541 (red blood cell lysis),"[3]; 90 min pH 5.5, 37° C.",0.640
same,A541 (red blood cell lysis),"[3]; 90 min pH 6.0, 37° C.",0.390
same,A541 (red blood cell lysis),"[3]; 90 min pH 7.5, 37° C.",0.036
same,A541 (red blood cell lysis),"[3]; 16 hrs pH 5.0, 37° C.",1.163
same,A541 (red blood cell lysis),"[3]; 16 hrs pH 5.5, 37° C.",0.796
same,A541 (red blood cell lysis),"[3]; 16 hrs pH 6.0, 37° C.",0.354
same,A541 (red blood cell lysis),"[3]; 16 hrs pH 7.5, 37° C.",0.065
same,time of rapid release of modified peptide,[3]; all acidic pH levels tested,< 30 min
same,release of modified peptide from the microsphere,[3]; pH 7.5,not released
same,A541 (red blood cell lysis),"[3]; second experiment, 30 min pH 5.0 supernatant",0.685
same,A541 (red blood cell lysis),"[3]; second experiment, 30 min pH 6.0 supernatant",0.213
same,A541 (red blood cell lysis),"[3]; second experiment, 30 min pH 7.5 supernatant",0.053
same,A541 (red blood cell lysis),"[3]; second experiment, pH 5.0, 2.5 M NaCl wash",0.101
same,A541 (red blood cell lysis),"[3]; second experiment, pH 6.0, 2.5 M NaCl wash",0.162
same,A541 (red blood cell lysis),"[3]; second experiment, pH 7.5, 2.5 M NaCl wash",0.087
"glycolic acid ethoxylate(4 units) 4-tert-buty-1,4-cyclohexadiene ether",rate constant of enol ether hydrolysis,[7],0.0159 min⁻¹

# From US7208314B2, “Compositions and methods for drug delivery using pH sensitive molecules” (priority 2002, dated 2007)
